Patent US8987320B2, “Solid salt forms of a pyrrole substituted 2-indolinone” (Zoetis LLC, priority 2005, dated 2015)
Entries after “also recorded” stand apart in the source; their conditions may differ. Read-outs that look alike come from different tables or passages of the source.

What was measured:
[1] = system: ERK1/2; assay: ERK1/2 phosphorylation in canine mast cell tumor biopsies before and after a single dose (Western blot); assay type: in vivo; settings: single oral dose 3.25 mg/kg
Procedure: (§1) Study Design. This study was a proof of target modulation study in dogs with recurrent or metastatic grade MCTs. Patients received a single oral dose of Compound I phosphate at 3.25 mg/kg. Using a 6-mm punch biopsy instrument, samples were obtained from the tumor before Compound I phosphate administration and 8 hours (h) after treatment. When possible, multiple biopsies were taken. Each sample was flash frozen in liquid nitrogen and stored at −70° centigrade (C) before analysis. Blood samples for analysis of plasma levels of Compound I phosphate were obtained at the same time as tumor biopsies (see below).
Analysis of KIT and ERK Phosphorylation. […] The amount of phosphorylated KIT in each sample was determined by Western blot using an antibody to phosphotyrosine 719 of murine KIT (3391; Cell Signaling Technology, Beverly, Mass.), which corresponds to tyrosine 721 of canine KIT and is an autophosphorylation site and, thus, a surrogate for KIT kinase activity. […] Target modulation was scored by eye by three observers blinded to the JM status and plasma concentration. Reduction of ≧50% in phospho-protein signal relative to total protein signal in the biopsy sample taken post-treatment compared with the pretreatment biopsy was scored as positive for target modulation, whereas a reduction of <50% was scored negative.

[2] = Dynamic moisture sorption gravimetry (DMSG) of salts of Compound I; assay type: physicochemical
Procedure: Dynamic Moisture Sorption Gravimetry (DMSG).
DMSG isotherm was collected on a temperature controlled atmospheric microbalance. Approximately 10 mg samples were placed in the sample pan of the balance. The humidity was sequentially varied from room relative humidity (RH) to 0% RH and was then increased to 90% RH followed by a decrease of RH to 0% again in 3% RH steps. The mass was then measured every two minutes. The RH was stepped to the next target value when change of the sample mass was less than 0.5 μg in 10 min. The Visual Basic program dmsgscn2.exe was used to control the data collection and export the information to an Excel spreadsheet.

[3] = system: recurrent mast cell tumors; assay: Multicenter, placebo-controlled, double blind, randomized study in dogs with recurrent mast cell tumors; assay type: in vivo
Procedure: Purpose. The effectiveness of Compound I phosphate oral tablets for the treatment of mast cell tumors in client-owned animals that had recurrent measurable disease after surgery was evaluated in a masked, negative controlled study. The study evaluated every-other-day dosing of Compound I phosphate at 3.25 mg free base equivalents (FBE)/kg body weight on disease response using modified (RECIST) criteria of response. The presence or absence of c-kit mutation in mast cell tumors was evaluated as a covariate in this study. For decision-making purposes, the duration of the study was 6 weeks.
One-hundred-fifty-three (153) dogs were randomized in a ratio of 4:3 into one of two treatment groups: T01 (Placebo in which n=65) and T02 (Compound I phosphate in which n=88). Ten veterinary oncology practices in the United States were selected and enrolled cases. For enrollment, dogs had to have recurrent mast cell tumor (at least one target lesion had to have a minimum longest diameter of 20 mm)±regional lymph node involvement. A maximum of three target lesions (measurable mast cell tumors) and all non-target lesions (all remaining lesions, measurable or un-measurable) were identified at baseline by two evaluators. Efficacy was based on the objective response (complete response or partial response) at the week 6 visit where the mean of the two evaluators sum of the longest diameter of target lesions (Mean Sum LD) was compared to the Baseline Mean Sum LD for calculation of percent reduction or increase. Assessment of non-target lesions was subjective. A complete response (CR) was defined as the disappearance of all target and non-target lesions and the appearance of no new lesions; a partial response (PR) was defined as at least a 30% decrease in the Mean Sum LD of target lesions compared to the Baseline Mean Sum LD and non-progression of non-target lesions and appearance of no new lesions. Tissue samples from the tumor and distant normal skin were collected prior to randomization and submitted for the assessment of c-kit mutation status.

[4] = system: KIT; assay: KIT phosphorylation in canine mast cell tumor biopsies before and after a single dose (immunoprecipitation/Western blot); assay type: in vivo
Procedure: as §1
Analysis of KIT and ERK Phosphorylation. Tumor biopsies were frozen in liquid nitrogen and later pulverized using a liquid nitrogen-cooled cryomortar and pestle, then stored at −70° C. until used. For the analysis of KIT, pulverized tumors were homogenized, lysed, and immunoprecipitated from 1 mg of starting tumor lysate, as described previously (Abrams, T. J., Lee, L. B., Murray, L. J., Pryer, N. K., Cherrington, J. M. SU11248 inhibits KIT and platelet-derived growth factor receptor beta in preclinical models of human small cell lung cancer. Mol. Cancer Ther. 2: 471-478, 2003; which is incorporated by reference in its entirety) using an agarose-conjugated antibody to KIT (SC-1493AC; Santa Cruz Biotechnology, Santa Cruz, Calif.). […] The amount of phosphorylated KIT in each sample was determined by Western blot using an antibody to phosphotyrosine 719 of murine KIT (3391; Cell Signaling Technology, Beverly, Mass.), which corresponds to tyrosine 721 of canine KIT and is an autophosphorylation site and, thus, a surrogate for KIT kinase activity. […] Target modulation was scored by eye by three observers blinded to the JM status and plasma concentration. Reduction of ≧50% in phospho-protein signal relative to total protein signal in the biopsy sample taken post-treatment compared with the pretreatment biopsy was scored as positive for target modulation, whereas a reduction of <50% was scored negative.

[5] = Estimation of solubility in various solvents by step-wise solvent addition; assay type: physicochemical
Procedure: Samples of 1-2 mg of Compound I phosphate (lot 35282-CS-51) were transferred to 10 mL glass vials (tared) and were weighed (accurate to 0.1 mg). Solvents were added to the vials (one solvent to each vial) in a step-wise fashion, with 0.5 mL of solvent added at each step. Solvents used were buffer (pH=2), buffer (pH=5), water, methanol, tetrahydrofuran (THF), acetonitrile, and acetone. After each addition, the vial was capped and shaken. The dissolution of solid was visually observed. If no obvious dissolution was observed, more solvent was added immediately. If dissolution was apparent, the vial was left on the bench for at least 30 minutes before the next addition of solvent. This step was repeated until no crystals were visible against a black and a white background. The solubility was then bracketed by dividing the weight of the compound by the final volume and the volume before the last addition. If a solid remained after the addition of 10 mL of solvent, the solubility was expressed as less than the weight divided by the final volume. If the solid was completely dissolved after the first addition of solvent, the solubility was expressed as greater than the weight divided by the solvent volume. All experiments were conducted at room temperature.

Cc1[nH]c(/C=C2\C(=O)Nc3ccc(F)cc32)c(C)c1C(=O)NCCN1CCCC1 [Compound I phosphate]
P-ERK½ reduction postdose (Phospho-Thr202/Tyr204 ERK½) ([1]; individual dogs, biopsy 8 h after treatment vs pretreatment): Yes (Reduction of ≧50% in phospho-protein signal relative to total protein signal in the biopsy sample taken post-treatment compared with the pretreatment biopsy was scored as positive for target modulation); also recorded: No (a reduction of <50% was scored negative) | evaluable tumors showing a reduction in the ratio of phospho-ERK1/2 to total ERK1/2 [1]: 7 of 11 evaluable | % water at 80% RH ([2]; 80% RH): ~1% | water at 80 percent humidity ([2]; 80 percent relative humidity): about 1% | animals that experienced progressive disease ([3]; 3.25 mg FBE/kg every other day, 6 weeks, 29/86): 33.7% | objective response rate (complete or partial response) ([3]; 3.25 mg FBE/kg every other day, oral tablets, week 6, 33/86): 38.3% | objective response, dogs positive for the c-kit mutation ([3]; T02 group, 12/20): 60% | objective response, dogs negative for the c-kit mutation ([3]; T02 group, 21/64): 32.8% | evaluable MCT biopsy pairs with detectable inhibition of KIT activation ([4]; Eight of 11, single oral dose): 73% | P-KIT reduction postdose (Phospho-Tyr721 KIT) ([4]; individual dogs, single oral dose 3.25 mg/kg, biopsy 8 h after treatment vs pretreatment): Yes (Reduction of ≧50% in phospho-protein signal relative to total protein signal in the biopsy sample taken post-treatment compared with the pretreatment biopsy was scored as positive for target modulation); also recorded: No (a reduction of <50% was scored negative) | evaluable dogs scored positive for KIT target modulation (≧50% reduction in phosphorylated KIT relative to total KIT) ([4]; single oral dose 3.25 mg/kg): Eight | Estimated solubility ([5]; Acetone, 23° C.): <<<0.2 mg/mL | Estimated solubility ([5]; Acetonitrile, 23° C.): <<<0.13 mg/mL | Estimated solubility ([5]; THF, 23° C.): <<<0.19 mg/mL | solubility ([5]; buffer (pH 2), pH 2, at pH 2 or lower, read-out: solubility): > 3000 µg/mL | solubility ([5]; buffer (pH 2, HCl and KCl), 23 °C, pH 2, aqueous buffer, thermodynamic from solid, buffer (pH = 2, HCl and KCl), 23° C., read-out: Estimated solubility): 5900 to 7400 µg/mL | Estimated solubility ([5]; methanol, 23° C.): ~0.14 mg/mL | solubility ([5]; water, 23 °C, pH 4.91, water, thermodynamic from solid, water, 23° C., final solution pH 4.91, read-out: Estimated solubility): ~290 µg/mL
